# Laboratory results taken from paper PMC4978154, “Phase I metabolites of mephedrone display biological activity as substrates at monoamine transporters” (British Journal of Pharmacology, 2016).
# Values joined by “and” are separate entries in the source; they are usually repeats but may differ in a detail not shown here. Identical values can stand only once. Like-named read-outs stand apart in the source and are kept apart here.
# Assays:
# hDAT = target: T1, hDAT (Homo sapiens, UniProt Q01959); assay: Transporter release (superfusion) assay in HEK293 cells expressing hDAT; assay type: cell-based; conditions: test drug 10 μM, monensin 10 μM; post hoc Bonferroni
# T1 construct: expressed in transfected cells
# Protocol: (§1) The generation of HEK293 cells stably expressing the human isoforms of DAT (hDAT) and NET (hNET) was carried out as described previously (Scholze et al., 2002). For SERT, the human isoform (hSERT) was cloned in frame with yellow fluorescent protein (Schmid et al., 2001). The generation of a stable cell line was performed as described by Hilber and colleagues (Hilber et al., 2005). HEK293 cells were maintained in humidified atmosphere (5% CO2, 37°C) in DMEM, supplemented with 10% heat‐inactivated FBS and penicillin (100 u 100 mL^−1) and streptomycin (100 μg 100 mL^−1). Selection pressure was maintained by adding geneticin (50 μg·mL^−1) to the cell culture media.
# (§2) Superfusion experiments were performed as described previously (Scholze et al., 2002). Briefly, HEK293 cells expressing the desired transporter were seeded at a density of 40 000 cells per well onto poly‐D‐lysine‐coated 5 mm glass cover slips in 96‐well plates 24 h prior to the experiment. Cells were preloaded with [^3H]‐MPP^+ (0.1 μM, hDAT and hNET) or [^3H]‐5‐HT (0.4 μM, hSERT) for 20 min at 37°C in a final volume of 100 μL per well. Subsequently, glass coverslips were transferred into small superfusion chambers (volume of 200 μL) and superfused with KHB at 25°C with a superfusion rate of 0.7 mL·min^−1 for 40 min to establish a stable basal efflux. After washout, the collection of 2‐min fractions was initiated. After the first three basal fractions, monensin (10 μM) or solvent was added for four fractions. Consequently, the cells were challenged with test drugs (10 μM) for five fractions in the presence or absence of monensin. Finally, the cells were lysed in 1% SDS to determine the total radioactivity. Radioactivity per fraction was assessed by a liquid scintillation counter and expressed as fractional release, that is, the percentage of released ^3H in relation to total ^3H present at the beginning of the fraction (Sitte et al., 2000). For analysis, release was expressed as AUC.
# (§3) Calculations were performed using Microsoft Excel® 2010 (Microsoft Corporation, Redmond, WA, USA) and GRAPHPAD PRISM 5.0. (GraphPad Software Inc., La Jolla, CA, USA). IC50 values for uptake inhibition and EC50 values for release were determined by nonlinear regression fits. Release data expressed as AUC were analysed by one‐way ANOVA followed by Bonferroni's multiple comparison test. Microdialysis and locomotor data were analysed by two‐way ANOVA (drug treatment × time) followed by Bonferroni's test. The effect of monensin treatment on basal efflux of tritiated substrate was analysed with the Mann–Whitney test. P values less than 0.05 (i.e. P < 0.05) were considered significant. The data and statistical analysis comply with the recommendations on experimental design and analysis in pharmacology (Curtis et al., 2015).
# Data from uptake inhibition assays cannot distinguish whether test drugs act as non‐transported inhibitors or transportable substrates, which evoke release (Scholze et al., 2000; Sitte et al., 2000; Baumann et al., 2013). Therefore, mephedrone and its metabolites were tested in release assays to further explore their interaction with transporters. The release assays were performed with the same transporter‐expressing HEK293 cell lines described above and used a superfusion system (Sitte et al., 2000). As described previously, efflux of preloaded [^3H]‐MPP^+ or [^3H]‐5‐HT was monitored in the presence or absence of monensin (10 μM) (Scholze et al., 2000). […]
# hNET = target: T2, hNET (Homo sapiens, UniProt P23975); assay: Transporter release (superfusion) assay in HEK293 cells expressing hNET; assay type: cell-based; conditions: test drug 10 μM, monensin 10 μM; post hoc Bonferroni
# T2 construct: expressed in transfected cells
# Protocol: as §1
# as §2, with “Consequently, the cells were challenged with test drugs (10 μM) for five fractions in the presence or absence of monensin.” left out
# as §3, with “(GraphPad Software Inc., La Jolla, CA, USA).” left out, “P values less than 0.05 (i.e. P < 0.05) were considered significant. The data and statistical analysis comply with the recommendations on experimental design and analysis in pharmacology (Curtis et al., 2015).” left out
# Data from uptake inhibition assays cannot distinguish whether test drugs act as non‐transported inhibitors or transportable substrates, which evoke release (Scholze et al., 2000; Sitte et al., 2000; Baumann et al., 2013). […] As described previously, efflux of preloaded [^3H]‐MPP^+ or [^3H]‐5‐HT was monitored in the presence or absence of monensin (10 μM) (Scholze et al., 2000). […]
# DAT = target: T3, DAT (Rattus norvegicus, UniProt P23977); assay: Transporter release assay in rat brain synaptosomes, DAT; assay type: biochemical; conditions: [3H]-MPP+, mean (95% confidence interval)
# T3 construct: a native tissue preparation that contains plasma membrane transporters in situ; from tissue; host or cells: rat striatum synaptosomes
# Protocol: The ability of mephedrone and its metabolites to evoke release via DAT, NET and SERT was determined in rat brain synaptosomes as previously described (Baumann et al., 2012). Rats were killed with CO2, decapitated, and brains were rapidly removed and dissected on ice. Synaptosomes were prepared from striatum for DAT assays, whereas synaptosomes were prepared from whole brain minus striatum and cerebellum for the NET and SERT assays. [^3H]‐MPP^+ (9 nM) was used as the radiolabelled substrate for DAT and NET, whereas [^3H]‐5‐HT (5 nM) was used as the radiolabelled substrate for SERT. All buffers used in the release assays contained 1 μM reserpine to block vesicular uptake of substrates. The selectivity of assays was optimized for a single transporter by including unlabelled compounds [nomifensine and 1‐(2‐diphenylmethoxyethyl)‐4‐(3‐phenylpropyl)piperazine dihydrochloride (GBR12935) for SERT; GBR12935 and citalopram for NET; citalopram and desipramine for DAT] to prevent the uptake of [^3H]‐MPP^+ or [^3H]‐5‐HT by competing transporters. Synaptosomes were preloaded with radiolabelled substrate in Krebs‐phosphate buffer, which consisted of 126 mM NaCl, 2.4 mM KCl, 0.5 mM KH2PO4, 1.1 mM CaCl2, 0.83 mM MgCl2, 0.5 mM Na2SO4, 11.1 mM glucose, 13.7 mM Na2HPO4, 1 mg·mL^−1 ascorbic acid and 50 μM pargyline (pH = 7.4) for 1 h (steady state). […] Assays were terminated by vacuum filtration, and retained radioactivity was quantified by liquid scintillation counting.
# as §3, with “(GraphPad Software Inc., La Jolla, CA, USA).” left out, “P values less than 0.05 (i.e. P < 0.05) were considered significant. The data and statistical analysis comply with the recommendations on experimental design and analysis in pharmacology (Curtis et al., 2015).” left out
# SERT = target: T4, SERT (Rattus norvegicus, UniProt P31652); assay: Transporter release assay in rat brain synaptosomes, SERT; assay type: biochemical; conditions: [3H]-5-HT; for EC50: mean (95% confidence interval)
# T4 construct: a native tissue preparation that contains plasma membrane transporters in situ; from tissue; host or cells: rat whole brain minus striatum and cerebellum, synaptosomes
# Protocol: The ability of mephedrone and its metabolites to evoke release via DAT, NET and SERT was determined in rat brain synaptosomes as previously described (Baumann et al., 2012). Rats were killed with CO2, decapitated, and brains were rapidly removed and dissected on ice. Synaptosomes were prepared from striatum for DAT assays, whereas synaptosomes were prepared from whole brain minus striatum and cerebellum for the NET and SERT assays. [^3H]‐MPP^+ (9 nM) was used as the radiolabelled substrate for DAT and NET, whereas [^3H]‐5‐HT (5 nM) was used as the radiolabelled substrate for SERT. All buffers used in the release assays contained 1 μM reserpine to block vesicular uptake of substrates. The selectivity of assays was optimized for a single transporter by including unlabelled compounds [nomifensine and 1‐(2‐diphenylmethoxyethyl)‐4‐(3‐phenylpropyl)piperazine dihydrochloride (GBR12935) for SERT; GBR12935 and citalopram for NET; citalopram and desipramine for DAT] to prevent the uptake of [^3H]‐MPP^+ or [^3H]‐5‐HT by competing transporters. Synaptosomes were preloaded with radiolabelled substrate in Krebs‐phosphate buffer, which consisted of 126 mM NaCl, 2.4 mM KCl, 0.5 mM KH2PO4, 1.1 mM CaCl2, 0.83 mM MgCl2, 0.5 mM Na2SO4, 11.1 mM glucose, 13.7 mM Na2HPO4, 1 mg·mL^−1 ascorbic acid and 50 μM pargyline (pH = 7.4) for 1 h (steady state). Assays were initiated by adding 850 μL of preloaded synaptosomes to 150 μL of test drug. Dose–response curves were generated using eight different concentrations of mephedrone, nor‐mephedrone or 4‐OH‐mephedrone. Assays were terminated by vacuum filtration, and retained radioactivity was quantified by liquid scintillation counting.
# as §3
# [1] = EC50 on transporter mediated efflux, DAT
# [2] = EC50 on transporter mediated efflux, SERT
# T3 sequence (P23977 whole entry): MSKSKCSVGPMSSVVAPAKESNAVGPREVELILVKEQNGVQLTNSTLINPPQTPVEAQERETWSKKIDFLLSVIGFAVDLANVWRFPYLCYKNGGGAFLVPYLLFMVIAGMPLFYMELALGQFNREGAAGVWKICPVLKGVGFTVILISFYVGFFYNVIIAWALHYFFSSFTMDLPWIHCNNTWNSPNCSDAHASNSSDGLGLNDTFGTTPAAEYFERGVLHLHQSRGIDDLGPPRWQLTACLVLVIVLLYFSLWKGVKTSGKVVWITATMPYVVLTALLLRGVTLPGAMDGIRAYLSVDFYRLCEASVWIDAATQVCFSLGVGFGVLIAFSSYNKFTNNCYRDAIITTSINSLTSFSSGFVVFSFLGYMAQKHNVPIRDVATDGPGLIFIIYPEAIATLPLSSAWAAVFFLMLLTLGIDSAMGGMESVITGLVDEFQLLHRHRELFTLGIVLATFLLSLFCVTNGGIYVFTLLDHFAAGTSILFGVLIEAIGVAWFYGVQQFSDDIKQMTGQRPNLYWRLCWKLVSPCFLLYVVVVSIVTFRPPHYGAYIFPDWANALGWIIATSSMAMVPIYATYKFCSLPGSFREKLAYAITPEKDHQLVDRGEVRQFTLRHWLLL
# T4 sequence (P31652 whole entry): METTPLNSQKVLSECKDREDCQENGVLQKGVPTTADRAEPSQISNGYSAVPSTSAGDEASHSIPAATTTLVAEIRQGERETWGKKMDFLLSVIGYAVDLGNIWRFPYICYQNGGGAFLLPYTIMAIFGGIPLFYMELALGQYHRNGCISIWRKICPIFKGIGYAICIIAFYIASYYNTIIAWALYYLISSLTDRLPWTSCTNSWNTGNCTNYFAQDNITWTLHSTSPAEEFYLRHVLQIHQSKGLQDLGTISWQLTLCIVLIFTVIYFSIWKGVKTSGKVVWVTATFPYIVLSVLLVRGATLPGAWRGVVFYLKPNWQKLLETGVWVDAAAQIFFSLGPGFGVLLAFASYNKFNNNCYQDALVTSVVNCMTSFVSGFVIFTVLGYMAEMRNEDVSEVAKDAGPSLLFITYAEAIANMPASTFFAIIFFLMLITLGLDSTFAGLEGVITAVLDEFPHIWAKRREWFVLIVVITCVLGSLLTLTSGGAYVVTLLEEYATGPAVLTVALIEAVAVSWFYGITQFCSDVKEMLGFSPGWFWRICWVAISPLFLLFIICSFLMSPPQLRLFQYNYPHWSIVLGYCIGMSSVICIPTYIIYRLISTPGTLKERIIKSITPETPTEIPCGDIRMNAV
# T1 sequence (Q01959 whole entry, the tested form may be a part): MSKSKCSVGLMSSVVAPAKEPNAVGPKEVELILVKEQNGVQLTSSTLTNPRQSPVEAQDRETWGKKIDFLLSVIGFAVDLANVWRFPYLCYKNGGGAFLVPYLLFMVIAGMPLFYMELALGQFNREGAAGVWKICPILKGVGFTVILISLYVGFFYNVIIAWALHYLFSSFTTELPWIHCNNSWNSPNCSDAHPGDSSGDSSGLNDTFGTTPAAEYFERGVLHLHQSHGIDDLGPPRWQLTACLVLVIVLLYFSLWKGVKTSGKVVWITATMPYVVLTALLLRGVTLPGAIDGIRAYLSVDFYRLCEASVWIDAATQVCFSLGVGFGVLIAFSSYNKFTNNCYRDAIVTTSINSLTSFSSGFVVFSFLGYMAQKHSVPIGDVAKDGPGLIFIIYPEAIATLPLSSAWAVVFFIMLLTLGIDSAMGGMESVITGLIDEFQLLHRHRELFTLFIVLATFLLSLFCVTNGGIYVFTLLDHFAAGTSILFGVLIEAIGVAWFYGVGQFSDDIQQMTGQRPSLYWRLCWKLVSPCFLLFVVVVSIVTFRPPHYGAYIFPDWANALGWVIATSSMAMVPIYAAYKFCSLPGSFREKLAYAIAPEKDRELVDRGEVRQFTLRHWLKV
# T2 sequence (P23975 whole entry, the tested form may be a part): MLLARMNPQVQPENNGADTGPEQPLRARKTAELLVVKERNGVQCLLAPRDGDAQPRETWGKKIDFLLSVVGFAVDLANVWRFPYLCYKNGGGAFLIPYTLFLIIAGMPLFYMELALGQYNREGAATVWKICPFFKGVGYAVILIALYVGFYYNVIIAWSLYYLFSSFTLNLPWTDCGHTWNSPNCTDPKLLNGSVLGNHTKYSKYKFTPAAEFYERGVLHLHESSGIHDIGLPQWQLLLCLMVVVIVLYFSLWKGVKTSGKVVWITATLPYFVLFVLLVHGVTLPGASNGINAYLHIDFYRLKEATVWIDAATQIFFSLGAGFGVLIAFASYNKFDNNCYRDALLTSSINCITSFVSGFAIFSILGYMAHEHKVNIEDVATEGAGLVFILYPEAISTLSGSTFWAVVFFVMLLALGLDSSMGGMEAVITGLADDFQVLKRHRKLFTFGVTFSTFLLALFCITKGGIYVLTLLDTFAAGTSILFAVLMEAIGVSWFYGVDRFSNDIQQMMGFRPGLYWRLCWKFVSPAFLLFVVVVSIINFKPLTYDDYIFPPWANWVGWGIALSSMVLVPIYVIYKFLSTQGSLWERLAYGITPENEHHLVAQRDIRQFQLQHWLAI
SMILES,enhancement by monensin of drug-evoked [3H]-MPP+ release at hDAT (AUC) (hDAT),enhancement by monensin of drug-evoked [3H]-MPP+ release at hNET (AUC) (hNET),"EC50 (DAT; read-out: EC50 on transporter mediated efflux, DAT)",rightward shift of SERT release curve compared with mephedrone (SERT),"EC50 (SERT; read-out: EC50 on transporter mediated efflux, SERT)",EC50 (DAT; [1]),EC50 (SERT; [2])
"CNC(C)C(=O)c1ccc(CO)cc1.Cl (stereo not shown) [4‐OH‐mephedrone, 1‐(4‐(hydroxymethyl)phenyl)‐2‐(methylamino)propan‐1‐one hydrochloride]",significant,significant,190 nM,10 fold,2000 nM and 2010 nM,,
"CNC(C)C(=O)c1ccc(C)cc1.Cl (stereo not shown) [Mephedrone, 2‐Methylamino‐1‐(p‐tolyl)propan‐1‐one hydrochloride]",significant,significant,,,,52 nM,210 nM
"Cc1ccc(C(=O)C(C)N)cc1.Cl (stereo not shown) [Nor‐mephedrone, 2‐amino‐1‐(p‐tolyl)propan‐1‐one hydrochloride]",significant,significant,,,,220 nM,200 nM and 210 nM
